{"source": "patent US20260224547A1", "about": "“COMPOSITIONS COMPRISING ANATABINE AND USES THEREOF” (Philip Morris Products S.A., priority 2021, published 2026)", "system": "HEK-293, SH-SY5Y, primary human keratinocytes, THP-1 differentiated with PMA", "assay": "Transcriptomics (microarray) after anatabine treatment of 4 cell systems", "type": "cell-based", "settings": "for Fold Change TXNRD1: gene TXNRD1; for Fold Change ZBTB21: gene ZBTB21; for Fold Change ZFAND2A: gene ZFAND2A", "protocol": "To investigate the signalling pathways triggered by anatabine, 4 cell systems (HEK-293, SH-SY5Y, primary human keratinocytes, THP-1 differentiated with PMA) were treated with 4 concentrations of anatabine (100, 200, 300, 400 μM) for 6 hours, after which transcriptomics measurements were performed.\nHEK-293 is a human embryonic kidney cell line devoid of nicotinic receptors. It can be relatively easily transfected and therefore used as a tool to express various subtypes of nicotinic receptors or reporter genes such as NRF2-driven luciferase, which were also used in this study. HEK-293 were seeded in a cell culture medium consisting of EMEM, 10% FBS, 1% NEAA, 1% Sodium Pyruvate and 1% PenStrep. 60,000 cells were seeded per well of a 96-well plate.\nSH-SY5Y is a human bone marrow neuroblastoma cell line that has been used by researchers to investigate the potential anti-inflammatory effect of anatabine. SH-SY5Y were seeded in a cell culture medium consisting of 50% EMEM and 50% Ham's F12 nutrient and including 10% FBS, 1% PenStrep and 1% L-glutamine. 15,000 cells were seeded per well of a 96-well plate.\nPrimary human keratinocytes have been included as a relevant cell system for skin. The batch of keratinocytes was selected in order to have healthy, non-smoker, 20-60 years old, Caucasian donors. The keratinocytes were seeded in a cell culture medium consisting of KGM-Gold Keratinocyte Growth Medium. 17,500 cells were seeded per well of a 96-well plate.\nThe human leukaemia-derived monocytic cell line THP-1, is the most widely used in vitro model for primary human macrophage investigations. THP-1 cells were seeded in a cell culture medium consisting of RPMI, 10% FBS and 1% PenStrep and in the presence of 40 ng/ml phorbol 12-myristate 13-acetate (PMA). 100,000 cells were seeded per well of a 96-well plate, having a total volume of […] per well. 48 hours later the medium was changed to the same culture medium but without PMA, and the culture was left to rest for 24 h before treatment.\nAll four cell systems were seeded in 96 well plates at a total volume of 190 μl per well to allow for a 20× compound stimulation with a volume of 10 μL. 24 hours after seeding—or in the case of THP-1, 24 h after changing to non-PMA medium—four cell systems were stimulated with anatabine (prepared at 20× the corresponding target concentration) to obtain a final molar concentration of 100, 200, 300, 400 μM anatabine.\nIn order to generate the transcriptomics data, the four cell systems were exposed to various concentrations of anatabine (100, 200, 300, 400 μM) for 6 hours. The transcriptome of the cells was analysed by a microarray-based analysis.\nThe cells were lysed using RLT BUFFER (Qiagen Hilden, Germany) for all cell types except the keratinocytes which were lysed with QIAZOL LYSIS REAGENT (Qiagen). RNA isolation was performed with RNEASY MICRO KIT (Qiagen). RNA quantification was assessed with a NANODROP 1000 (ThermoFisher Waltham, MA, USA) and quality of the total RNA was verified acquiring a profile with a 2100 BIOANALYZER (Agilent Technologies, Santa Clara, CA, USA), requiring an RIN number greater than 6.0. 50 ng of total RNA were processed as described in the TECAN/NUGEN OVATION RNA AMPLIFICATION SYSTEM V2 (Tecan Mannedorf, Switzerland). Human Genome U133 Plus 2.0 array were used for hybridization on a THERMOFISHER OVEN 645, washed on THERMOFISHER GENECHIP™ FLUIDICS STATIONS 450DX (protocol FS450-0004) and scanned on a THERMOFISHER GENECHIP™ SCANNER 3000 7G.\nQuality control check of all chips was done with the BIOCONDUCTOR affyPLM R package version 1.64. Following quality control procedures, differential gene expression analysis was performed using the BIOCONDUCTOR LIMMA R package version 3.44.3. Pairwise comparisons at the gene level, called systems response profiles (SRP), were computed by comparing each concentration-treatment with its respective vehicle control. […]", "key": {"[1]": {"settings": "cell system THP1, anatabine 200 μM"}, "[2]": {"settings": "cell system THP1, anatabine 300 μM"}, "[3]": {"settings": "cell system THP1, anatabine 400 μM"}, "[4]": {"settings": "cell system HEK293, anatabine 100 μM"}, "[5]": {"settings": "cell system HEK293, anatabine 200 μM"}, "[6]": {"settings": "cell system HEK293, anatabine 300 μM"}, "[7]": {"settings": "cell system HEK293, anatabine 400 μM"}, "[8]": {"settings": "cell system KEAT, anatabine 100 μM"}, "[9]": {"settings": "cell system KEAT, anatabine 200 μM"}, "[10]": {"settings": "cell system KEAT, anatabine 300 μM"}, "[11]": {"settings": "cell system KEAT, anatabine 400 μM"}, "[12]": {"settings": "cell system SHSY5Y, anatabine 100 μM"}, "[13]": {"settings": "cell system SHSY5Y, anatabine 200 μM"}, "[14]": {"settings": "cell system SHSY5Y, anatabine 300 μM"}, "[15]": {"settings": "cell system SHSY5Y, anatabine 400 μM"}, "[16]": {"settings": "cell system THP1, anatabine 100 μM"}}, "data": [{"smiles": "C1=CCC(c2cccnc2)NC1", "note": "(racemic) [anatabine, 1,2,3,6-Tetrahydro-2,3′-bipyridine]", "values": [{"measurement": "Fold Change", "setting": "G0S2 gene, SHSY5Y, anatabine 200 μM", "value": "−0.07408"}, {"measurement": "Fold Change", "setting": "G0S2 gene, SHSY5Y, anatabine 300 μM", "value": "−0.1621"}, {"measurement": "Fold Change", "setting": "G0S2 gene, SHSY5Y, anatabine 400 μM", "value": "−0.6623"}, {"measurement": "Fold Change", "setting": "G0S2 gene, THP1, anatabine 100 μM", "value": "−0.1613"}, {"measurement": "Fold Change", "setting": "G0S2 gene, THP1, anatabine 200 μM", "value": "−0.07473"}, {"measurement": "Fold Change", "setting": "G0S2 gene, THP1, anatabine 300 μM", "value": "−0.2674"}, {"measurement": "Fold Change", "setting": "G0S2 gene, THP1, anatabine 400 μM", "value": "−0.3675"}, {"measurement": "Fold Change", "setting": "GCLM gene, HEK293, anatabine 100 μM", "value": 0.1086}, {"measurement": "Fold Change", "setting": "GCLM gene, HEK293, anatabine 200 μM", "value": 0.5976}, {"measurement": "Fold Change", "setting": "GCLM gene, HEK293, anatabine 300 μM", "value": 0.7652}, {"measurement": "Fold Change", "setting": "GCLM gene, HEK293, anatabine 400 μM", "value": 1.165}, {"measurement": "Fold Change", "setting": "GCLM gene, KEAT, anatabine 100 μM", "value": 0.5698}, {"measurement": "Fold Change", "setting": "GCLM gene, KEAT, anatabine 200 μM", "value": 0.8549}, {"measurement": "Fold Change", "setting": "GCLM gene, KEAT, anatabine 300 μM", "value": 1.582}, {"measurement": "Fold Change", "setting": "GCLM gene, KEAT, anatabine 400 μM", "value": 1.567}, {"measurement": "Fold Change", "setting": "GCLM gene, SHSY5Y, anatabine 100 μM", "value": 0.3907}, {"measurement": "Fold Change", "setting": "GCLM gene, SHSY5Y, anatabine 200 μM", "value": 0.7053}, {"measurement": "Fold Change", "setting": "GCLM gene, SHSY5Y, anatabine 300 μM", "value": 1.629}, {"measurement": "Fold Change", "setting": "GCLM gene, SHSY5Y, anatabine 400 μM", "value": 2.292}, {"measurement": "Fold Change", "setting": "GCLM gene, THP1, anatabine 100 μM", "value": 0.2992}, {"measurement": "Fold Change", "setting": "GCLM gene, THP1, anatabine 200 μM", "value": 0.7816}, {"measurement": "Fold Change", "setting": "GCLM gene, THP1, anatabine 300 μM", "value": 1.645}, {"measurement": "Fold Change", "setting": "GCLM gene, THP1, anatabine 400 μM", "value": 2.36}, {"measurement": "Fold Change", "setting": "HMOX1 gene, HEK293, anatabine 100 μM", "value": 0.7745}, {"measurement": "Fold Change", "setting": "HMOX1 gene, HEK293, anatabine 200 μM", "value": 1.877}, {"measurement": "Fold Change", "setting": "HMOX1 gene, HEK293, anatabine 300 μM", "value": 2.27}, {"measurement": "Fold Change", "setting": "HMOX1 gene, HEK293, anatabine 400 μM", "value": 3.142}, {"measurement": "Fold Change", "setting": "HMOX1 gene, KEAT, anatabine 100 μM", "value": 3.914}, {"measurement": "Fold Change", "setting": "HMOX1 gene, KEAT, anatabine 200 μM", "value": 4.283}, {"measurement": "Fold Change", "setting": "HMOX1 gene, KEAT, anatabine 300 μM", "value": 5.733}, {"measurement": "Fold Change", "setting": "HMOX1 gene, KEAT, anatabine 400 μM", "value": 5.633}, {"measurement": "Fold Change", "setting": "HMOX1 gene, SHSY5Y, anatabine 100 μM", "value": 0.8699}, {"measurement": "NRF2 target genes (HMOX1, GCLM, NQO1, TXNRD1) mRNA", "setting": "four cell lines, 100, 200, 300, 400 μM for 6 hours", "value": "dose-dependent increase"}, {"measurement": "Fold Change TXNRD1", "setting": "[1]", "value": 0.4137}, {"measurement": "Fold Change TXNRD1", "setting": "[2]", "value": 0.8364}, {"measurement": "Fold Change TXNRD1", "setting": "[3]", "value": 1.246}, {"measurement": "Fold Change ZBTB21", "setting": "[4]", "value": 0.1286}, {"measurement": "Fold Change ZBTB21", "setting": "[5]", "value": 0.3704}, {"measurement": "Fold Change ZBTB21", "setting": "[6]", "value": 0.3353}, {"measurement": "Fold Change ZBTB21", "setting": "[7]", "value": 0.6783}, {"measurement": "Fold Change ZBTB21", "setting": "[8]", "value": 0.4558}, {"measurement": "Fold Change ZBTB21", "setting": "[9]", "value": 0.5643}, {"measurement": "Fold Change ZBTB21", "setting": "[10]", "value": 0.9994}, {"measurement": "Fold Change ZBTB21", "setting": "[11]", "value": 0.8602}, {"measurement": "Fold Change ZBTB21", "setting": "[12]", "value": 0.1782}, {"measurement": "Fold Change ZBTB21", "setting": "[13]", "value": 0.5134}, {"measurement": "Fold Change ZBTB21", "setting": "[14]", "value": 0.6287}, {"measurement": "Fold Change ZBTB21", "setting": "[15]", "value": 0.9685}, {"measurement": "Fold Change ZBTB21", "setting": "[16]", "value": "−0.01334"}, {"measurement": "Fold Change ZBTB21", "setting": "[1]", "value": 0.2576}, {"measurement": "Fold Change ZBTB21", "setting": "[2]", "value": 0.3746}, {"measurement": "Fold Change ZBTB21", "setting": "[3]", "value": 0.5865}, {"measurement": "Fold Change ZFAND2A", "setting": "[4]", "value": 0.1376}, {"measurement": "Fold Change ZFAND2A", "setting": "[5]", "value": 0.3375}, {"measurement": "Fold Change ZFAND2A", "setting": "[6]", "value": 0.4979}, {"measurement": "Fold Change ZFAND2A", "setting": "[7]", "value": 0.7014}, {"measurement": "Fold Change ZFAND2A", "setting": "[8]", "value": 0.2592}, {"measurement": "Fold Change ZFAND2A", "setting": "[9]", "value": 0.4658}, {"measurement": "Fold Change ZFAND2A", "setting": "[10]", "value": 3.354}, {"measurement": "Fold Change ZFAND2A", "setting": "[11]", "value": 1.766}, {"measurement": "Fold Change ZFAND2A", "setting": "[12]", "value": 0.09166}, {"measurement": "Fold Change ZFAND2A", "setting": "[13]", "value": 0.3919}, {"measurement": "Fold Change ZFAND2A", "setting": "[14]", "value": 0.5328}, {"measurement": "Fold Change ZFAND2A", "setting": "[15]", "value": 1.066}, {"measurement": "Fold Change ZFAND2A", "setting": "[16]", "value": 0.1252}, {"measurement": "Fold Change ZFAND2A", "setting": "[1]", "value": 0.2497}, {"measurement": "Fold Change ZFAND2A", "setting": "[2]", "value": 0.5677}, {"measurement": "Fold Change ZFAND2A", "setting": "[3]", "value": 1.236}]}]}
